# Experimental data as given in PubChem BioAssay AID1963981 (Molecular Pharmacology Branch, DTP, NCI, 2024).
# System: 354836-022-R-J1-PDC multicell spheroid viability
# Test: Anticancer human tumor 354836-022-R-J1-PDC patient-derived head and neck squamous cell carcinoma cell line growth inhibition [PI3K]
# Conditions: for IC50: curve of first compound; for viability, T/C: stronger effect = lower value
# Procedure, shortened: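 Spheroid viability read-out. Co-cultures contained the tumor line plus HUVEC and human MSCs. Each agent was paired with a PI3K inhibitor (inavolisib, alpelisib, duvelisib, copanlisib) across half-log dilutions starting at clinical Cmax, or at 10 microM when Cmax was unknown.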
# [1] = second compound 0.0316 µM, first compound 0.0316 µM
# [2] = second compound 0.0316 µM, first compound 0.1 µM
# [3] = second compound 0.1 µM, first compound 0.0316 µM
# [4] = second compound 0.1 µM, first compound 0.1 µM
# [5] = second compound 0.316 µM, first compound 0.0316 µM
# [6] = second compound 0.316 µM, first compound 0.1 µM
# [7] = second compound 1 µM, first compound 0.0316 µM
# [8] = second compound 1 µM, first compound 0.1 µM
# [9] = second compound 3.16 µM, first compound 0.0316 µM
# [10] = second compound 3.16 µM, first compound 0.1 µM
# [11] = second compound 10 µM, first compound 0.0316 µM
# [12] = second compound 10 µM, first compound 0.1 µM
# [13] = second compound 0.0316 µM, first compound 0.316 µM
# [14] = second compound 0.0316 µM, first compound 1 µM
# [15] = second compound 0.0316 µM, first compound 3.16 µM
# [16] = second compound 0.0316 µM, first compound 10 µM
# [17] = second compound 0.1 µM, first compound 0.316 µM
# [18] = second compound 0.1 µM, first compound 1 µM
# [19] = second compound 0.1 µM, first compound 3.16 µM
# [20] = second compound 0.1 µM, first compound 10 µM
# [21] = second compound 0.316 µM, first compound 0.316 µM
# [22] = second compound 0.316 µM, first compound 1 µM
# [23] = second compound 0.316 µM, first compound 3.16 µM
# [24] = second compound 0.316 µM, first compound 10 µM
# [25] = second compound 1 µM, first compound 0.316 µM
# [26] = second compound 1 µM, first compound 1 µM
# [27] = second compound 1 µM, first compound 3.16 µM
# [28] = second compound 1 µM, first compound 10 µM
# [29] = second compound 3.16 µM, first compound 0.316 µM
# [30] = second compound 3.16 µM, first compound 1 µM
# [31] = second compound 3.16 µM, first compound 3.16 µM
# [32] = second compound 3.16 µM, first compound 10 µM
# [33] = second compound 10 µM, first compound 0.316 µM
# [34] = second compound 10 µM, first compound 1 µM
# [35] = second compound 10 µM, first compound 3.16 µM
# [36] = second compound 10 µM, first compound 10 µM
# 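Further: spheroids exposed to agents for seven days before the viability read.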
smiles,measurement,setting,value
CC(C)n1nc(-c2ccc3oc(N)nc3c2)c2c(N)ncnc21 + Cc1nc(NC(=O)N2CCCC2C(N)=O)sc1-c1ccnc(C(C)(C)C(F)(F)F)c1,IC50,second compound 0.0316 µM,14.2 nM
same,IC50,second compound 0.1 µM,8.94 nM
same,IC50,second compound 0.316 µM,11.1 nM
same,IC50,second compound 1 µM,8.28 nM
same,IC50,second compound 3.16 µM,3.89 nM
same,IC50,second compound 10 µM,< 0.316 nM
same,"viability, T/C","second compound 0.0316 µM, first compound 0.000316 µM",92.2%
same,"viability, T/C","second compound 0.0316 µM, first compound 0.001 µM",87.7%
same,"viability, T/C","second compound 0.0316 µM, first compound 0.00316 µM",88.7%
same,"viability, T/C","second compound 0.0316 µM, first compound 0.01 µM",44.3%
same,"viability, T/C",[1],41.7%
same,"viability, T/C",[2],9.88%
same,"viability, T/C","second compound 0.1 µM, first compound 0.000316 µM",89.6%
same,"viability, T/C","second compound 0.1 µM, first compound 0.001 µM",82.7%
same,"viability, T/C","second compound 0.1 µM, first compound 0.00316 µM",102%
same,"viability, T/C","second compound 0.1 µM, first compound 0.01 µM",45.5%
same,"viability, T/C",[3],36%
same,"viability, T/C",[4],11.5%
same,"viability, T/C","second compound 0.316 µM, first compound 0.000316 µM",76.1%
same,"viability, T/C","second compound 0.316 µM, first compound 0.001 µM",80.2%
same,"viability, T/C","second compound 0.316 µM, first compound 0.00316 µM",81.3%
same,"viability, T/C","second compound 0.316 µM, first compound 0.01 µM",49.1%
same,"viability, T/C",[5],26.3%
same,"viability, T/C",[6],10.8%
same,"viability, T/C","second compound 1 µM, first compound 0.000316 µM",72.5%
same,"viability, T/C","second compound 1 µM, first compound 0.001 µM",69.4%
same,"viability, T/C","second compound 1 µM, first compound 0.00316 µM",69.2%
same,"viability, T/C","second compound 1 µM, first compound 0.01 µM",43%
same,"viability, T/C",[7],26.5%
same,"viability, T/C",[8],8.31%
same,"viability, T/C","second compound 3.16 µM, first compound 0.000316 µM",55.8%
same,"viability, T/C","second compound 3.16 µM, first compound 0.001 µM",45.2%
same,"viability, T/C","second compound 3.16 µM, first compound 0.00316 µM",60.2%
same,"viability, T/C","second compound 3.16 µM, first compound 0.01 µM",39.2%
same,"viability, T/C",[9],22%
same,"viability, T/C",[10],5.92%
same,"viability, T/C","second compound 10 µM, first compound 0.000316 µM",40.9%
same,"viability, T/C","second compound 10 µM, first compound 0.001 µM",40.5%
same,"viability, T/C","second compound 10 µM, first compound 0.00316 µM",40.1%
same,"viability, T/C","second compound 10 µM, first compound 0.01 µM",26.4%
same,"viability, T/C",[11],15.2%
same,"viability, T/C",[12],4.44%
CC1(C)CCC(CN2CCN(c3ccc(C(=O)NS(=O)(=O)c4ccc(NCC5CCOCC5)c([N+](=O)[O-])c4)c(Oc4cnc5[nH]ccc5c4)c3)CC2)=C(c2ccc(Cl)cc2)C1 + Cc1nc(NC(=O)N2CCCC2C(N)=O)sc1-c1ccnc(C(C)(C)C(F)(F)F)c1,IC50,second compound 0.0316 µM,4530 nM
same,IC50,second compound 0.1 µM,4080 nM
same,IC50,second compound 0.316 µM,4270 nM
same,IC50,second compound 1 µM,4310 nM
same,IC50,second compound 3.16 µM,2740 nM
same,IC50,second compound 10 µM,< 31.6 nM
same,"viability, T/C",[1],99.3%
same,"viability, T/C",[2],82.3%
same,"viability, T/C",[13],94.3%
same,"viability, T/C",[14],91.7%
same,"viability, T/C",[15],70.1%
same,"viability, T/C",[16],5.83%
same,"viability, T/C",[3],109%
same,"viability, T/C",[4],93%
same,"viability, T/C",[17],97.1%
same,"viability, T/C",[18],100%
same,"viability, T/C",[19],63%
same,"viability, T/C",[20],4.78%
same,"viability, T/C",[5],99.7%
same,"viability, T/C",[6],86.4%
same,"viability, T/C",[21],79.5%
same,"viability, T/C",[22],91.9%
same,"viability, T/C",[23],65.4%
same,"viability, T/C",[24],6.04%
same,"viability, T/C",[7],83.7%
same,"viability, T/C",[8],79.6%
same,"viability, T/C",[25],88.4%
same,"viability, T/C",[26],79.7%
same,"viability, T/C",[27],67%
same,"viability, T/C",[28],4.76%
same,"viability, T/C",[9],68.3%
same,"viability, T/C",[10],66.5%
same,"viability, T/C",[29],72.1%
same,"viability, T/C",[30],60.8%
same,"viability, T/C",[31],48.8%
same,"viability, T/C",[32],4.11%
same,"viability, T/C",[11],38.1%
same,"viability, T/C",[12],39.8%
same,"viability, T/C",[33],43.8%
same,"viability, T/C",[34],37.4%
same,"viability, T/C",[35],34.6%
same,"viability, T/C",[36],7.88%
C[C@@H](NC(=O)c1ncnc(N)c1Cl)c1ncc(C(=O)Nc2cc(C(F)(F)F)c(Cl)cn2)s1 + Cc1nc(NC(=O)N2CCCC2C(N)=O)sc1-c1ccnc(C(C)(C)C(F)(F)F)c1,IC50,second compound 0.0316 µM,> 10000 nM
same,IC50,second compound 0.1 µM,> 10000 nM
same,IC50,second compound 0.316 µM,> 10000 nM
same,IC50,second compound 1 µM,> 10000 nM
same,IC50,second compound 3.16 µM,> 10000 nM
same,IC50,second compound 10 µM,< 31.6 nM
same,"viability, T/C",[1],103%
same,"viability, T/C",[2],78.6%
same,"viability, T/C",[13],95.9%
same,"viability, T/C",[14],87.3%
same,"viability, T/C",[15],86.6%
same,"viability, T/C",[16],60.6%
same,"viability, T/C",[3],94.6%
same,"viability, T/C",[4],95.4%
same,"viability, T/C",[17],98%
same,"viability, T/C",[18],97.2%
same,"viability, T/C",[19],96.7%
same,"viability, T/C",[20],66.2%
same,"viability, T/C",[5],77.7%
same,"viability, T/C",[6],89.7%
same,"viability, T/C",[21],86.5%
same,"viability, T/C",[22],90.8%
same,"viability, T/C",[23],89.6%
same,"viability, T/C",[24],77.8%
same,"viability, T/C",[7],65.3%
same,"viability, T/C",[8],87.1%
same,"viability, T/C",[25],76.4%
same,"viability, T/C",[26],75.3%
same,"viability, T/C",[27],78.4%
same,"viability, T/C",[28],67.7%
same,"viability, T/C",[9],53.9%
same,"viability, T/C",[10],59.8%
same,"viability, T/C",[29],70.1%
same,"viability, T/C",[30],59.7%
same,"viability, T/C",[31],66.5%
same,"viability, T/C",[32],37.8%
same,"viability, T/C",[11],32.1%
same,"viability, T/C",[12],38.4%
same,"viability, T/C",[33],37.8%
same,"viability, T/C",[34],39.2%
same,"viability, T/C",[35],36.1%
same,"viability, T/C",[36],16.7%
